The results in this text go back to PMC9114338 (Scientific Reports, 2022).

SMILES strings stand for the structures.

The series in a line: MALDI imaging mass spectrometry of dermal tissues adjacent to the implant. The series is classed as in vivo, C57BL/6 J mice. On the procedure:
The used implants, the surrounding capsule, and the encasing dermal tissue were removed as a block in accordance with ISO 10993-6 guidelines, processed and stored, as described elsewhere. Briefly, the capsule was cut longitudinally and rolled open, taking care not to disrupt the architecture of the tissue or to damage the used implant. A portion of the tissue specimen was placed into 4% paraformaldehyde solution (phosphate-buffered at pH 7.2), and stored at 4 °C, for histopathology and two other portions were flash-frozen in liquid nitrogen for drug concentration analysis as well as for drug spatial distribution analysis by MALDI-IMS (vide infra).
Frozen mouse tissue specimens were shipped to Vanderbilt University on dry ice and stored at − 80 °C prior to use. Tissues were removed from the − 80 °C freezer and placed in a − 20 °C cryostat (CM 1900, Leica Biosystems, Buffalo Grove, IL) and sectioned. Tissue samples that had been prepared via removal of the used implant were affixed to the cryostat chuck with optimal cutting temperature (OCT) polymer and were cut on the cryostat into 12 µm thick sections for imaging mass spectrometry and H&E staining.
Tissue samples that still contained the implant in place were embedded in OCT prior to sectioning. In order to minimize the artifactual signal from the TAF powder after sectioning (the act of the cryostat blade cutting through an intact implant distributed residual TAF powder that still remained in the used implant onto the surrounding tissue section), house vacuum was used to remove visible TAF powder, followed by lightly running nitrogen gas over the plate to remove any additional loose powder from the slide.
The tissue sections were thaw-mounted onto indium-tin oxide coated glass slides for imaging (Delta Technologies, Ltd, Loveland, CO). The tissue sections were left to dry for at least 15 min in a desktop vacuum desiccator prior to matrix application. […] For 9AA, four passes were applied at 85 °C in a crisscross pattern, with a 700 mm min^-1 stage velocity, 2 mm track spacing, and 0.15 mL min^-1 flow rate. For DHB the same method was used, except eight passes were applied and the stage velocity was 1300 mm min^-1.
Flash-frozen dermal tissue samples collected adjacent to the TAF implants and sectioned were analyzed with a linear ion trap mass spectrometer equipped with a MALDI source and a nitrogen laser (LTQ XL, Thermo Scientific, Waltham, MA). The structures of compounds of interest are shown in Scheme 1. Targeted MS/MS methods were optimized for each compound using authentic samples as standards, with the final parameters shown in Appendix A under Supplementary Information. Pseudo-selected reaction monitoring mode was used for imaging by isolating precursor ions with a 1 Da window, fragmenting them, and acquiring full product ion mass spectra at each pixel. TFV, TFV-MP, and TFV-DP were analyzed in negative ion mode, while TAF, Metabolite X, and Metabolite Y were analyzed in positive ion mode. In most cases, after imaging, the matrix was removed and the tissue section that had been imaged was H&E stained for better image registration with tissue morphology. Standard images were acquired at either 50 or 100 µm spatial resolution. Reconstructed ion images were generated in ImageQuest software (Thermo Scientific, Waltham, MA) by plotting the intensity of the diagnostic fragment ion or ions as a function of location across the tissue surface.

As to `C[C@H](Cn1cnc2c(N)ncnc21)OCP(=O)(O)O` [TFV, tenofovir], the “Detection by MALDI-IMS in dermal tissue samples during implant TAF delivery” value (all medicated specimens) was “detected”. The “Spatial distribution in dermal tissue sections (MALDI-IMS)” value (high-releasing (0.58 mg d^-1) implants, D3–D28) is “distributed homogeneously throughout the samples”. For the same molecule, for the setting “low-releasing (0.23 mg d^-1) implants, Day 14, 100 µm resolution”, the “MALDI-IMS signal and localization with implant in situ” value is on record as “most abundant signals”.
